Measurements from the NIST ThermoML archive (doi:10.1016/j.fluid.2015.06.041).

Assay: xn = mol fraction of the nth substance listed
Details: 101 kPa, Liquid; for viscosity: Capillary tube (Ostwald / Ubbelohde) method; for speed of sound: Frequency=2 MHz, Linear variable-path acoustic interferometer; for mass density: Vibrating tube method

ClCCCl [1,2-dichloroethane] + C1COCCO1
Details	mass density, 298.15 K [kg/m3]	mass density, 308.15 K [kg/m3]	mass density, 318.15 K [kg/m3]	speed of sound, 298.15 K [m/s]	viscosity, 298.15 K [mPa·s]	viscosity, 308.15 K [mPa·s]	viscosity, 318.15 K [mPa·s]
x2 = 0	1246.37	1231.21	1214.55	1193.6	0.7804	0.6744	0.5719
x2 = 0.0934	1221.34	1206.17	1189.14	1198.9	0.8045	0.6918	0.5856
x2 = 0.1881	1197.17	1182.34	1164.97	1204.7	0.8332	0.7127	0.6042
x2 = 0.2843	1173.99	1159.5	1141.96	1211.7	0.864	0.737	0.6266
x2 = 0.3819	1151.77	1137.63	1120	1218.7	0.8974	0.7628	0.6499
x2 = 0.4258	1142.09	1128.16	1110.67	1222.7	0.9132	0.7747	0.6611
x2 = 0.5816	1109.56	1096.17	1079.43	1240.4	0.9729	0.8211	0.705
x2 = 0.6838	1089.25	1076.38	1060.46	1256.1	1.016	0.8551	0.7374
x2 = 0.7875	1069.16	1056.58	1042.21	1277.4	1.064	0.8949	0.775
x2 = 0.8929	1048.86	1036.88	1024.08	1306.8	1.117	0.9435	0.8234

NCCN [ethane-1,2-diamine] + C1COCCO1
Details	mass density, 298.15 K [kg/m3]	mass density, 308.15 K [kg/m3]	mass density, 318.15 K [kg/m3]	speed of sound, 298.15 K [m/s]	viscosity, 298.18 K [mPa·s]	viscosity, 308.15 K [mPa·s]	viscosity, 318.15 K [mPa·s]
x2 = 0	894.79	885.63	867.62	1670.8	1.276	1.107	0.9445
x2 = 0.08	907.17	897.75	880.1	1625.9	1.263	1.092	0.9318
x2 = 0.1636	919.48	909.85	892.74	1585.3	1.25	1.078	0.9205
x2 = 0.2511	931.76	921.06	905.51	1546.2	1.239	1.066	0.9111
x2 = 0.3428	944.28	934.33	918.46	1506.8	1.228	1.053	0.9021
x2 = 0.385	949.92	939.89	924.35	1488.8	1.223	1.048	0.8983
x2 = 0.5399	970.35	959.96	945.42	1428.4	1.206	1.033	0.8929
x2 = 0.6461	984.1	973.48	959.55	1395.1	1.197	1.026	0.8913
x2 = 0.7578	998.37	987.59	974.27	1369.6	1.189	1.019	0.8918
x2 = 0.8756	1013.03	1002.04	989.43	1353.7	1.182	1.016	0.8902

NCCO [2-aminoethan-1-ol] + C1COCCO1
Details	mass density, 298.15 K [kg/m3]	mass density, 308.15 K [kg/m3]	mass density, 318.15 K [kg/m3]	speed of sound, 298.15 K [m/s]	viscosity, 298.15 K [mPa·s]	viscosity, 308.15 K [mPa·s]	viscosity, 318.15 K [mPa·s]
x2 = 0	1011.79	1004.68	998.15	1716.8	18.95	11.96	7.913
x2 = 0.0597	1015.53	1007.5	1000.35	1696.8	16.05	10.32	6.94
x2 = 0.1251	1018.05	1010.07	1001.77	1677.7	13.39	8.772	6.01
x2 = 0.1969	1020.39	1011.65	1003.06	1654.2	10.97	7.34	5.132
x2 = 0.276	1022.47	1013.21	1004.08	1626.7	8.798	6.031	4.321
x2 = 0.3639	1024.23	1014.47	1004.75	1593.6	6.892	4.851	3.555
x2 = 0.4618	1025.64	1015.23	1004.92	1557.5	5.249	3.804	2.867
x2 = 0.5716	1026.41	1015.49	1005.06	1517.9	3.868	2.898	2.255
x2 = 0.6958	1027.09	1015.74	1004.96	1471.8	2.739	2.132	1.719
x2 = 0.8373	1027.58	1016.22	1005.1	1417.1	1.849	1.506	1.266
